We go through 1 molecule from patent US7932389B2, “Octahydropyrrolo[2,3C]pyridine derivatives and pharmaceutical use thereof” (Merck Serono S.A., priority 2004, dated 2011).

For orientation: IC50 means the concentration that gives 50% inhibition.

In assay [1] the test system is IL-2-induced peritoneal recruitment of lymphocytes. Put plainly: IL-2-induced peritoneal recruitment of lymphocytes. In kind it is in vivo, C3H/HEN mice. Conditions: 10 mg/kg, subcutaneous, 15 min prior to IL-2; cells collected 24 h after IL-2; mice. The method, then:
Administration of IL-2 intraperitoneally causes migration of lymphocytes into the intraperitoneal cavity. This is a model for the cellular migration that occurs during inflammation.
C3H/HEN mice (Elevage Janvier, France) were intraperitoneally injected with IL-2 (Serono Pharmaceutical Research Institute, 20 μg/kg, in saline).
Compounds of the invention were suspended in 0.5% carboxymethylcellulose (CMC)/0.25% tween-20 and were administered by s.c. or p.o. route (10 ml/kg) 15 min prior to administration of IL-2.
Twenty-four hours after administration of IL-2, peritoneal white blood cells were collected by 3 successive lavages of the peritoneal cavity with 5 ml phosphate buffered saline (PBS)-1 mM EDTA (+4° C.). The suspension was centrifuged (1700 g×10 min at +4° C.). The resulting pellet was suspended in 1 ml PBS-1 mM EDTA.
Lymphocytes were identified and counted using a Beckman/Coulter counter.
The animals were divided into 6 groups (6 mice each group):
Group 1: (baseline) received 0.5% CMC/0.25% tween-20 (vehicle of compound of the invention) and saline (vehicle of IL-2);
Group 2: (control IL-2) received 0.5% CMC/0.25% tween-20 and injection of IL-2;
Group 3: Experimental group (Compound of the invention Dose 1) received a compound of the invention and injection of IL-2; […]
Inhibition of lymphocyte recruitment was calculated as follows: […]

Assay [2] addresses T1, MMP-2 (Homo sapiens, UniProt P08253).
T1 sequence (P08253 110-660): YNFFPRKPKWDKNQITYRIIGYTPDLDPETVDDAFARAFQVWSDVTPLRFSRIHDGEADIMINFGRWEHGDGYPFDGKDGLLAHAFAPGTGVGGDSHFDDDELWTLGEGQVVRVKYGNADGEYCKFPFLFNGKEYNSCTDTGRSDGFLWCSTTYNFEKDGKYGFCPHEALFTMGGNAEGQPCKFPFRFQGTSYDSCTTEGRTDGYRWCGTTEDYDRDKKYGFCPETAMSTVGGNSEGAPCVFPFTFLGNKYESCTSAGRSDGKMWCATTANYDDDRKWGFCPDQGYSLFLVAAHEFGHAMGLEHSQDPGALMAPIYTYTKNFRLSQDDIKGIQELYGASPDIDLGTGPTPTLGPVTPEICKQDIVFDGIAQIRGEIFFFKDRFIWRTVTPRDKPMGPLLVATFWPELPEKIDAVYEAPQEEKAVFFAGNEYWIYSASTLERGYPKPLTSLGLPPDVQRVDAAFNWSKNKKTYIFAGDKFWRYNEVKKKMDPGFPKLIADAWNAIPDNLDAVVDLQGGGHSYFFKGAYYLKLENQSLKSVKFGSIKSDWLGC
Kind of assay: MMP-2 enzyme inhibition assay, coumarin-labelled peptide substrate McaPLGLDpaAR. The assay is classed as biochemical. How it is done:
(§1) Compounds of the invention were tested to assess their activities as inhibitors of MMP-1, MMP-2, MMP-9, MMP-14 and MMP-12.
(§2) Stock solutions were made up as follows: Assay Butter: 100 mM Tris-HCl pH 7.6 containing 100 mM NaCl, 10 mM CaCl2, and 0.05% Brij 35.
(§3) Substrate: 0.4 mM McaPLGLDpaAR (from Bachem) (0.437 mg/ml) stock solution in 100% DMSO (stored at −20° C.). Dilute to 8 μM in assay butter.
(§4) Test Compounds were prepared initially as 10 mM compound solution in 100% DMSO, diluted to 1 mM in 100% DMSO, then serially diluted 3-fold in 100% DMSO across columns 1-10 of a 96-well microtitre plate Assay concentration range, 100 μM (column 1) to 5.1 nM (column 10).
(§5) The assay was performed in a total volume of 100 μL per well in 96-well microtitre plates. Activated enzyme (20 μL) was added to the wells followed by 20 μL of assay butter. Appropriate concentrations of test compounds dissolved in 10 μL of DMSO were then added followed by 50 μL of McaPLGLDpaAR (8 μM, prepared by dilution of DMSO stock in assay butter). For each as say ten concentrations of test compound were examined in duplicate. Control wells lack either enzyme or test compound. The reactions were incubated at 37° C. for 2 hours. The fluorescence at 405 nm was measured immediately with an SLT Fluostar fluorometer (SLT Labinstruments GmbH, Grödig, Austria) using 320 nm excitation, without stopping the reaction.
(§6) The effect of the test compound was determined from the dose response curve generated by the 10 duplicate concentrations of inhibitor. The IC50 (the concentration of compound required to give a 50% decrease in enzyme activity) was obtained by fitting data to the equation, Y=a+((b−a)/(1+(c/X)^d)). (Y=inhibition achieved for a particular dose; X=the dose in nM; a=minimum y or zero % inhibition; b=maximum y or 100% inhibition; c=is the IC50; d=is the slope). The result was rounded to one significant figure.
Compounds of the invention were tested for inhibitory activity against collagenase (MMP-2) in an assay using a coumarin-labelled peptide substrate, (7-methoxycoumarin-4-yl)acetyl-Pro-Leu-Gly-Leu-(3-[2,4-dinitrophenyl]-L-2,3diaminopropionyl)-Ala-Arg-NH2 (Mca PLGLDpaAR) (Knight et al, 1992, above). The protocol for this assay was as described for the MMP-9 assay above.

For assay [3], the target named is metalloelastase (MMP-12) (Homo sapiens, UniProt P39900). Kind of assay: MMP-12 enzyme inhibition assay, coumarin-labelled peptide substrate McaPLGLDpaAR. The assay is classed as biochemical. The method, then: as §1, §2, §3, §4, §5, §6
Compounds of the invention were tested for inhibitory activity against metalloelastase (MMP-12) in an assay using a coumarin-labelled peptide substrate, (7-methoxycoumarin-4-yl)acetyl-Pro-Leu-Gly-Leu-(3-[2,4dinitrophenyl]-L-2,3-diaminopropionyl)-Ala-Arg-NH2 (McaPLGLDpaAR) (Knight et al, 1992, above). The protocol for this assay was as described for the MMP-9 assay above.

The target in assay [4] is Recombinant human 92 kDa gelatinase (MMP-9) (Homo sapiens, UniProt P14780). Put plainly: MMP-9 enzyme inhibition assay, coumarin-labeled peptide substrate McaPLGLDpaAR. The assay is classed as biochemical. The method, then: as §1
Compounds of the invention were tested for inhibitory activity against 92 kDa gelatinase (MMP-9) in an assay using a coumarin-labeled peptide substrate, (7-methoxycoumarin-4-yl)acetyl-Pro-Leu-Gly-Leu-(3-[2,4-dinitrophenyl]-L-2,3diaminopropionyl)-Ala-Arg-NH2 (McaPLGLDpaAR) (Knight et al, FEBS Lett. 1992; 263-266).
as §2, §3
Enzyme: Recombinant human 92 kDa gelatinase (MMP-9; APMA (4-aminophenyl mercuric acetate)-activated if necessary) appropriately diluted in assay butter.
as §4, §5, §6

Sequence of Recombinant human 92 kDa gelatinase (MMP-9) (P14780 107-707 limits assumed): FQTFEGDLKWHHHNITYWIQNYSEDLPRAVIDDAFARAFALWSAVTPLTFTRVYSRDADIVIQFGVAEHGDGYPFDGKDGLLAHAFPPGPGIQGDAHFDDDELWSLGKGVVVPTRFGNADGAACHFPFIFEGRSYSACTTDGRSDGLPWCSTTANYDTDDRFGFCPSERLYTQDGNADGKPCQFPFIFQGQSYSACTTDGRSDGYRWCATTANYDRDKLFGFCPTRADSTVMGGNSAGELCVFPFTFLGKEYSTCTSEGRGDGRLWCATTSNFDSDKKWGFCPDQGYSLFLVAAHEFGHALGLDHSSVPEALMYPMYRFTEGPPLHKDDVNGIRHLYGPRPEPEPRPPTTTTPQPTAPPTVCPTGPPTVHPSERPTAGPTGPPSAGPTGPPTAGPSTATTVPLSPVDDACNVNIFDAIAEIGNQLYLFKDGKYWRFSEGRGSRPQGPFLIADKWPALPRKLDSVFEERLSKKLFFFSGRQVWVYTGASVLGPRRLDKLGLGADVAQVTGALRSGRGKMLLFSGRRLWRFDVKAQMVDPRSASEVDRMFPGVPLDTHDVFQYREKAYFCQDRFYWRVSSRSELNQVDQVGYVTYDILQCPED
Sequence of metalloelastase (MMP-12) (P39900 106-470): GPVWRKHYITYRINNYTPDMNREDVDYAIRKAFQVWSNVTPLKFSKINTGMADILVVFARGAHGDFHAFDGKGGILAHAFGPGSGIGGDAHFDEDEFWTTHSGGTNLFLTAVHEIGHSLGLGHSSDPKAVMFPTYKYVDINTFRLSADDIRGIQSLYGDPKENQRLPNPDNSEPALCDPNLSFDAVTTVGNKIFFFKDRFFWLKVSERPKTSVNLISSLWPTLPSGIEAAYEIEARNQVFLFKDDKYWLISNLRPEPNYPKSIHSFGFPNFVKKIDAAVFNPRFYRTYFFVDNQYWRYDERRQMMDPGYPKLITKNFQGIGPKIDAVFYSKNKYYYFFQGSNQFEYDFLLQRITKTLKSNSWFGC

Turning to `CS(=O)(=O)N1CC[C@H]2C[C@@H](C(=O)NO)N(S(=O)(=O)c3ccc(Oc4ccncc4)cc3)[C@H]2C1` (relative stereo) [Example 11, rel-(2S,3aS,7aR)—N-hydroxy-6-(methylsulfonyl)-1-{[4-(pyridin-4-yloxy)phenyl]sulfonyl}octahydro-1H-pyrrolo[2,3-c]pyridine-2-carboxamide], the “% inhibition of IL-2-induced peritoneal recruitment of lymphocytes” value in assay [1] amounted to 38%. Besides, the values for the 50% inhibitory concentration (IC50) in assay [2], in assay [3] and in assay [4] were 0.37 µM, 0.08 µM and 0.87 µM, respectively.
